Measurements from patent US9511120B2, “Use of the angiotensin-(1-9) peptide or derivatives thereof, use of vectors overexpressing the ACE2 enzyme that produces angiotensin-(1-9) for preparing medicaments useful for preventing, reverting, inhibiting and/or reducing hypertension and/or inducing vasodilation” (PONTIFICA UNIVERSIDAD CATÓLICA DE CHILE, priority 2012, dated 2016).
Marks after values point to notes of the source that are not given here. Where no end group is shown, it is not given here.

What was measured:
[1] = test system: cardiomyocyte hypertrophy induced by Ang II in vivo; assay: Angiotensin II infusion model: cardiomyocyte hypertrophy (area and perimeter); set-up: species or system rat
Description: (§1) Rats were subjected to the model of angiotensin II infusion (Grobe et al.: Am. J. Physiol. 292: H736-42, 2007). The animals were separated randomly into the following experimental groups: controls (Sham or pseudo-operated), infused with angiotensin II (300 ng/kg min), infused with angiotensin II and angiotensin-(1-9) (300 ng/kg min and 602 ng/kg min, respectively), and then infused with angiotensin II, angiotensin-(1-9) and the angiotensin-(1-7) receptor antagonist, A779 (300 ng/kg min, 602 ng/kg min, and 100 ng/kg min, respectively). In all cases the pumps operated at a flow of 0.5 μL/h and were implanted in the right jugular vein through a catheter fitted in an intrascapular subcutaneous pocket under anesthesia with ketamine HCl/xylazine (35 and 7 mg/kg i.p., respectively), for a period of 14 days.
The middle portion of the left ventricle (LV) was dehydrated at room temperature for 24 h in Bouin and then embedded in paraffin. Sections of 10-15 μm thick were taken and stained with hematoxylin-eosin, to be examined later in a light microscope in order to observe their general morphological characteristics. Cardiomyocyte size was determined according to Nakamura et al. (Circulation, 98:794-9, 1998). Briefly, images of the cells were captured using a Nikon DS Fi1 camera and projected on a monitor using a software program. The cardiomyocyte area and perimeter were measured and recorded, using the Nis-Element program (Ocaranza et al. J. Hypertens., 28:1054-64, 2010). All measurements were performed by a blinded observer, and at least 80 images of cells per animal, which were randomly selected, were analyzed.

MCP-1 mRNA = assay: Angiotensin II infusion model: MCP-1 mRNA levels in the aortic wall; format: in vivo, rat
Description: as §1
The procedure described by Ocaranza et al. (Hypertension 48:572-8, 2006) was followed. Briefly, total RNA was isolated from the aorta using the trizol method and quantified by spectroscopy at 260 nm/280 nm. The cDNA was obtained by reverse transcription from 1.5 μg of total RNA treated with DNAse. […] The band intensity was quantified by densitometry and normalized to the 18S ribosomal RNA band.

[2] = test system: hypertensive myocardial fibrosis by pressure overload; assay: Goldblatt model: volume fraction of total collagen in the ventricle (picrosirius red); format: in vivo, rat; details: GB rats
Excerpt: (§2) Lewis normotensive rats (weight 150±10 g), which were separated randomly into the experimental hypertension model group or GB (Ocaranza et al. J. Hypertens. 20:413-20, 2002) or control group (S) were used. The latter corresponded to pseudo-operated animals. All animals were maintained under controlled conditions of light and darkness and had free access to food and water. Four weeks after surgery and at a blood pressure above 140 mmHg, GB rats were randomized for the chronic administration of angiotensin-(1-9) through an osmotic pump (602 ng kg^−1min^−1) via the jugular vein during two weeks. The animals were euthanized after 6 weeks post-surgery.
Sections of 5 μm of ventricle, previously included in Bouin, which were treated with picrosirius red, were used. The tissue was examined under light microscopy, images were captured with a Nikon DS Fi1 camera and projected on a monitor. The Matlab program was used to measure the interstitial collagen content according to the procedure described by Ocaranza et al. (J. Cardiovasc. Pharmacol. 40:246-54, 2002).

ED-1 = assay: Goldblatt model: ventricular content of ED-1; format: in vivo, rat; details: GB rats, ventricle
Excerpt: as §2
Immunostaining was performed using the streptavidin-biotin-peroxidase method with the inflammation marker ED-1. This is a glycoprotein expressed primarily in the lysosomal membrane of active macrophages (Leskovar et al. J. Exp. Biol. 203:1783-1795, 2000).
In order to block endogenous peroxidase, the samples were deparaffinized, rehydrated and treated with 10% H2O2 in methanol for 1 h. Then, the tissues were incubated with monoclonal antibody anti ED-1 (clone MCA341R, Serotec) diluted 1/1000 in 1% BSA prepared in PBS-0.05% Tween 20 overnight at 4° C. in a humid chamber. The sections were washed three times with 1×PBS-0.05% Tween 20, pH 7.4 for 5 min and incubated with the biotinylated secondary antibody for 30 min at room temperature. […]

rat mesenteric arteries = assay: Contractility studies in perfused, pressurized mesenteric arteries; details: arteries with intact endothelium as compared to arteries without endothelium
Description: The change in diameter of rat resistance (mesenteric) arteries was determined, they were then perfused and pressurized under physiological conditions, in response to different substances, according to a methodology previously described (Gonzalez et al. Hypertension 45:853-9, 2005). Briefly, male rats (Sprague Dawley, 150-200 g) were euthanized for dissection of mesenteric vascular territory, avoiding direct manipulation of arterial or venous tissue. Mesenteric small arteries (200-300 micrometers) were isolated, surgically eliminating adventitial tissue under a zoom stereo microscope (Olympus SZ61). The arteries were perfused intraluminally into a thermoregulated bath at controlled pressure and flow, with perfusion solution (modified Krebs, KRB) of the following composition, in mmol/L: NaCl, 130; CaCl2, 2.5; NaHCO3, 25; MgSO4, 1.2; NaH2PO4, 1.2; KCl, 4.7; glucose, 5.5, pH 7.4. Before use, KRB was gassed with a mixture of 95% O2 and 5% CO2. For perfusion, the artery was cannulated with a glass micropipette (outer diameter 164μ), secured with 5-0 silk suture. The arteries were perfused with 10-20 μL/min KRB, so as to achieve transmural pressure of 60 mmHg. After a rest period of 20 minutes, each artery was incubated in the presence of a vasoconstrictor (100 μM phenylephrine) for two minutes and an endothelial NO production agonist (1 μM acetylcholine). […]

[3] = co-administered with angiotensin II

DRVYIHPFH
reduction in cell area as compared to the group infused with angiotensin II alone [1, 3]: 20% | reduction in cell perimeter as compared to the group infused with angiotensin II alone [1, 3]: 11% | cardiomyocyte cell area ([1]; left ventricle, two weeks): 227±2 μm^2 | cardiomyocyte perimeter ([1]; left ventricle, two weeks): 59.1±0.3 μm | MCP-1 mRNA levels (MCP-1 mRNA): no differences | decrease of VFTC as compared to untreated hypertensive rats [2]: 41% | volume fraction of total collagen (VFTC) ([2]; untreated GB 6.5±1): 3.8% | # Positive cells (ED-1) (ED-1): 0-20 | Assigned value (ventricular content of ED-1) (ED-1): 1^# (Low number of ED1 and isolated) | diameter of resistance arteries (rat mesenteric arteries): increased in a dose-dependent manner
